According to patent US12319695B2, “Sulfonamide derivative with fused pyrimidine skeleton, having epidermal growth factor receptor mutation inhibitory effect” (HANMI PHARM. CO., LTD., priority 2018, dated 2025):

System: Ba/F3 EGFR del19/T790M/C797S cells
Assay: Ba/F3 EGFR del19/T790M/C797S cell growth inhibition test (CellTiter-Glo, 72 hours);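 further: compounds tested in tenfold steps from 10 µM down to 0.1 nM, with luminescence read on a microplate reader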
Format: cell-based
Details: Ba/F3 cell line overexpressing EGFR del19/T790M/C797S, 72 hours, CellTiter-Glo; read-out: Ba/F3 EGFR del19/T790M/C797S cells, GI50
Description: Specifically, the cell line stored in a liquid nitrogen tank was taken out, rapidly dissolved at 37° C., and thereafter centrifuged to remove the cryopreservation medium. The recovered cell pellets were well mixed in a culture medium, put into a culture flask, and passaged under conditions of 37° C. and 5% carbon dioxide to stabilize the cells to the logarithmic growth phase. Thereafter, cells were taken from the flask, centrifuged to remove the culture medium, washed with Dulbecco's phosphate buffered saline (DPBS), and then centrifuged again to remove DPBS, and then diluted with a culture medium to have 1×10^5 cells/ml. The diluted cells were dispensed into a 96-well plate at 100 μl per well. […] The DMSO solution containing each compound was diluted with a culture medium to a concentration of 30 μM, and then tenfold serial dilution was used to prepare a solution diluted upto 0.3 nM (in order to reach a final DMSO concentration of 1% or less).
50 μl of a test solution of each compound was added each time to the 96-well plate in which the cells were dispensed, thus reaching a final concentration of 10 μM to 0.1 nM in 150 μl per well. The cells treated with the test solution were cultured under conditions of 37° C. and 5% carbon dioxide for 72 hours. After the 96-well plate in which the cells were cultured was acclimated to room temperature for 30 minutes, CellTiter-Glo® Luminescent Cell Assay Reagent (CTG, Promega) was dispensed at 50 μl per well. After stabilizing luminescence signals for 10 minutes, the luminescence intensity was measured with a microplate reader.
The GI50 value of each compound was calculated using nonlinear regression of GraphPad Prism; log[inhibitor] vs. normalized response analysis.

Row | Compound | GI50
1 | CN1CCN(c2ccc(Nc3nc(Nc4ccccc4N(C)S(C)(=O)=O)c4cc[nH]c4n3)cc2)CC1 [Example 1, N-methyl-N-(2-((2-((4-(4-methylpiperazin-1-yl)phenyl)amino)-7H-pyrrolo[2,3-d]pyrimidine-4-yl)amino)phenyl)methanesulfonamide] | 0.0031 µM
2 | Cc1cc(N2CCN(C)CC2)ccc1Nc1nc(Nc2ccccc2N(C)S(C)(=O)=O)c2cc[nH]c2n1 [Example 2, N-methyl-N-(2-((2-((2-methyl-4-(4-methylpiperazin-1-yl)phenyl)amino)-7H-pyrrolo[2,3-d]pyrimidine-4-yl)amino)phenyl)methanesulfonamide] | 0.522 µM
3 | CN1CCN(c2ccc(Nc3nc(Nc4ccccc4N(C)S(C)(=O)=O)c4cc[nH]c4n3)c(F)c2)CC1 [Example 3, N-(2-((2-((2-fluoro-4-(4-methylpiperazin-1-yl)phenyl)amino)-7H-pyrrolo[2,3-d]pyrimidine-4-yl)amino)phenyl)-N-methylmethanesulfonamide] | 0.157 µM
4 | CN1CCN(c2ccc(Nc3nc(Nc4ccccc4N(C)S(C)(=O)=O)c4cc[nH]c4n3)cc2O)CC1 [Example 4, N-(2-((2-((3-hydroxy-4-(4-methylpiperazin-1-yl)phenyl)amino)-7H-pyrrolo[2,3-d]pyrimidine-4-yl)amino)phenyl)-N-methylmethanesulfonamide] | 0.453 µM
5 | Cc1cc(Nc2nc(Nc3ccccc3N(C)S(C)(=O)=O)c3cc[nH]c3n2)ccc1N1CCN(C)CC1 [Example 5, N-methyl-N-(2-((2-((3-methyl-4-(4-methylpiperazin-1-yl)phenyl)amino)-7H-pyrrolo[2,3-d]pyrimidine-4-yl)amino)phenyl)methanesulfonamide] | 0.031 µM
6 | CN(c1ccccc1Nc1nc(Nc2ccc(N3CCC(N4CCOCC4)CC3)c(F)c2)nc2[nH]ccc12)S(C)(=O)=O [Example 18, N-(2-((2-((3-fluoro-4-(4-morpholinopiperidin-1-yl)phenyl)amino)-7H-pyrrolo[2,3-d]pyrimidine-4-yl)amino)phenyl)-N-methylmethanesulfonamide] | 0.073 µM
7 | CN(c1ccccc1Nc1nc(Nc2ccc(N3CCN(C4COC4)CC3)c(F)c2)nc2[nH]ccc12)S(C)(=O)=O [Example 19] | 0.112 µM
8 | CN1CCN(c2c(F)cc(Nc3nc(Nc4ccccc4N(C)S(C)(=O)=O)c4cc[nH]c4n3)cc2F)CC1 [Example 25, N-(2-((2-((3,5-difluoro-4-(4-methylpiperazin-1-yl)phenyl)amino)-7H-pyrrolo[2,3-d]pyrimidine-4-yl)amino)phenyl)-N-methylmethanesulfonamide] | 0.022 µM
9 | CN1CCN(c2ccc(Nc3nc(Nc4ccccc4N(C)S(C)(=O)=O)c4cc[nH]c4n3)c(F)c2F)CC1 [Example 27, N-(2-((2-((2,3-difluoro-4-(4-methylpiperazin-1-yl)phenyl)amino)-7H-pyrrolo[2,3-d]pyrimidine-4-yl)amino)phenyl)-N-methylmethanesulfonamide] | 0.006 µM
10 | CN(c1ccccc1Nc1nc(Nc2ccc(N3CCN(CCO)CC3)c(F)c2F)nc2[nH]ccc12)S(C)(=O)=O [Example 28, N-(2-((2-((2,3-difluoro-4-(4-(2-hydroxyethyl)piperazin-1-yl)phenyl)amino)-7H-pyrrolo[2,3-d]pyrimidine-4-yl)amino)phenyl)-N-methylmethanesulfonamide] | 0.007 µM
11 | CN1CCN(c2ccc(Nc3nc(Nc4ccccc4N(C)S(C)(=O)=O)c4cc[nH]c4n3)nc2)CC1 [Example 29, N-methyl-N-(2-((2-((5-(4-methylpiperazin-1-yl)pyridin-2-yl)amino)-7H-pyrrolo[2,3-d]pyrimidine-4-yl)amino)phenyl)methanesulfonamide] | 0.626 µM
12 | CN1CCN(c2ccc(Nc3nc(Nc4ccccc4N(C)S(C)(=O)=O)c4cc[nH]c4n3)cn2)CC1 [Example 30, N-methyl-N-(2-((2-((6-(4-methylpiperazin-1-yl)pyridin-3-yl)amino)-7H-pyrrolo[2,3-d]pyrimidine-4-yl)amino)phenyl)methanesulfonamide] | 0.0094 µM
13 | CN1CCC2(CC1)CCN(c1ccc(Nc3nc(Nc4ccccc4N(C)S(C)(=O)=O)c4cc[nH]c4n3)cc1F)CC2 [Example 31, N-(2-((2-((3-fluoro-4-(9-methyl-3,9-diazaspiro[5.5]undecan-3-yl)phenyl)amino)-7H-pyrrolo[2,3-d]pyrimidine-4-yl)amino)phenyl)-N-methylmethanesulfonamide] | 0.01 µM
14 | CCN1CCC2(CC1)CCN(c1ccc(Nc3nc(Nc4ccccc4N(C)S(C)(=O)=O)c4cc[nH]c4n3)cc1F)CC2 [Example 32, N-(2-((2-((4-(9-ethyl-3,9-diazaspiro[5.5]undecan-3-yl)-3-fluorophenyl)amino)-7H-pyrrolo[2,3-d]pyrimidine-4-yl)amino)phenyl)-N-methanesulfonamide] | 0.011 µM
15 | CN1CCC2(CCN(c3ccc(Nc4nc(Nc5ccccc5N(C)S(C)(=O)=O)c5cc[nH]c5n4)cc3F)CC2)C1 [Example 33, N-(2-((2-((3-fluoro-4-(2-methyl-2,8-diazaspiro[4.5]decan-8-yl)phenyl)amino)-7H-pyrrolo[2,3-d]pyrimidine-4-yl)amino)phenyl)-N-methylmethanesulfonamide] | 0.031 µM
16 | CN1CC2(CCN(c3ccc(Nc4nc(Nc5ccccc5N(C)S(C)(=O)=O)c5cc[nH]c5n4)cc3F)CC2)C1 [Example 34, N-(2-((2-((3-fluoro-4-(2-methyl-2,7-diazaspiro[3.5]nonan-7-yl)phenyl)amino)-7H-pyrrolo[2,3-d]pyrimidine-4-yl)amino)phenyl)-N-methylmethanesulfonamide] | 0.006 µM
17 | CN1CCC2(CC1)CCN(c1ccc(Nc3nc(Nc4ccccc4N(C)S(C)(=O)=O)c4cc[nH]c4n3)cc1F)C2 [Example 35, N-(2-((2-((3-fluoro-4-(8-methyl-2,8-diazaspiro[4.5]decan-2-yl)phenyl)amino)-7H-pyrrolo[2,3-d]pyrimidine-4-yl)amino)phenyl)-N-methylmethanesulfonamide] | 0.185 µM
18 | CN1CCC2(C1)CN(c1ccc(Nc3nc(Nc4ccccc4N(C)S(C)(=O)=O)c4cc[nH]c4n3)cc1F)C2 [Example 38, N-(2-((2-((3-fluoro-4-(6-methyl-2,6-diazaspiro[3.4]octan-2-yl)phenyl)amino)-7H-pyrrolo[2,3-d]pyrimidine-4-yl)amino)phenyl)-N-methylmethanesulfonamide] | 0.025 µM
19 | CN(c1ccccc1Nc1nc(Nc2ccc(N3CCC4(CCOCC4)CC3)c(F)c2)nc2[nH]ccc12)S(C)(=O)=O [Example 39, N-(2-((2-((3-fluoro-4-(3-oxa-9-diazaspiro[5.5]undecan-9-yl)phenyl)amino)-7H-pyrrolo[2,3-d]pyrimidine-4-yl)amino)phenyl)-N-methylmethanesulfonamide] | 0.067 µM
20 | CN(c1ccccc1Nc1nc(Nc2ccc(N3CCC4(CC3)COC4)c(F)c2)nc2[nH]ccc12)S(C)(=O)=O [Example 40, N-(2-((2-((3-fluoro-4-(2-oxa-7-azaspiro[3.5]nonan-7-yl)phenyl)amino)-7H-pyrrolo[2,3-d]pyrimidine-4-yl)amino)phenyl)-N-methylmethanesulfonamide] | 0.065 µM

Now from value to compound:

Row | GI50 | Compound
21 | 0.054 µM | CN1CCN(c2ccc(Nc3nc(Nc4ccccc4N(C)S(C)(=O)=O)c4cc[nH]c4n3)cc2Cl)CC1 [Example 6, N-(2-((2-((3-chloro-4-(4-methylpiperazin-1-yl)phenyl)amino)-7H-pyrrolo[2,3-d]pyrimidine-4-yl)amino)phenyl)-N-methylmethanesulfonamide]
22 | 0.019 µM | CN1CCN(c2ccc(Nc3nc(Nc4ccccc4N(C)S(C)(=O)=O)c4cc[nH]c4n3)cc2F)CC1 [Example 7, N-(2-((2-((3-fluoro-4-(4-methylpiperazin-1-yl)phenyl)amino)-7H-pyrrolo[2,3-d]pyrimidine-4-yl)amino)phenyl)-N-methylmethanesulfonamide]
23 | 0.0042 µM | CN(c1ccccc1Nc1nc(Nc2ccc(N3CCOCC3)c(F)c2)nc2[nH]ccc12)S(C)(=O)=O [Example 12, N-(2-((2-((3-fluoro-4-morpholinophenyl)amino)-7H-pyrrolo[2,3-d]pyrimidine-4-yl)amino)phenyl)-N-methylmethanesulfonamide]
24 | 0.037 µM | CN1CCC(c2ccc(Nc3nc(Nc4ccccc4N(C)S(C)(=O)=O)c4cc[nH]c4n3)cc2F)CC1 [Example 20, N-(2-((2-((3-fluoro-4-(1-methylpiperidin-4-yl)phenyl)amino)-7H-pyrrolo[2,3-d]pyrimidine-4-yl)amino)phenyl)-N-methylmethanesulfonamide]
25 | 0.017 µM | CN(C)C1CCN(c2ccc(Nc3nc(Nc4ccccc4N(C)S(C)(=O)=O)c4cc[nH]c4n3)cc2F)CC1 [Example 21, N-(2-((2-((4-(4-(dimethylamino)piperidin-1-yl)-3-fluorophenyl)amino)-7H-pyrrolo[2,3-d]pyrimidine-4-yl)amino)phenyl)-N-methylmethanesulfonamide]
26 | 0.371 µM | CN(c1ccccc1Nc1nc(Nc2ccc(N3CCCCC3)c(F)c2)nc2[nH]ccc12)S(C)(=O)=O [Example 22, N-(2-((2-((4-(piperidin-1-yl)-3-fluorophenyl)amino)-7H-pyrrolo[2,3-d]pyrimidine-4-yl)amino)phenyl)-N-methylmethanesulfonamide]
27 | 0.076 µM | CN(c1ccccc1Nc1nc(Nc2ccc(N3CCNCC3)c(F)c2)nc2[nH]ccc12)S(C)(=O)=O [Example 23, N-(2-((2-((3-fluoro-4-(piperazin-1-yl)phenyl)amino)-7H-pyrrolo[2,3-d]pyrimidine-4-yl)amino)phenyl)-N-methylmethanesulfonamide]
28 | 0.047 µM | CN1CCC(Nc2ccc(Nc3nc(Nc4ccccc4N(C)S(C)(=O)=O)c4cc[nH]c4n3)cc2F)CC1 [Example 24, N-(2-((2-((3-fluoro-4-((1-methylpiperidin-4-yl)amino)phenyl)amino)-7H-pyrrolo[2,3-d]pyrimidine-4-yl)amino)phenyl)-N-methylmethanesulfonamide]
29 | 0.095 µM | CN1CCC2(CC1)CN(c1ccc(Nc3nc(Nc4ccccc4N(C)S(C)(=O)=O)c4cc[nH]c4n3)cc1F)C2 [Example 37, N-(2-((2-((3-fluoro-4-(7-methyl-2,7-diazaspiro[3.5]nonan-2-yl)phenyl)amino)-7H-pyrrolo[2,3-d]pyrimidine-4-yl)amino)phenyl)-N-methylmethanesulfonamide]
